Test results published in ChEMBL document CHEMBL4364295, “Discovery of a First-in-Class Receptor Interacting Protein 2 (RIP2) Kinase Specific Clinical Candidate, 2-((4-(Benzo[d]thiazol-5-ylamino)-6-(tert-butylsulfonyl)quinazolin-7-yl)oxy)ethyl Dihydrogen Phosphate, for the Treatment of Inflammatory Diseases” (J Med Chem, 2019).
Values belong to the molecule of their own block, whether it stands above or below them. The source made the active and inactive calls. The rule behind the calls is not given here.

How the values were obtained:
[1] = Oral bioavailability in Sprague-Dawley rat at 2 mg/kg by LC/MS/MS analysis; format: ADME, organism-based; settings: in vivo
[2] = Volume of distribution at steady state in Beagle dog at 2 mg/kg, po or 1.1 mg/kg, iv by LC/MS/MS analysis; format: ADME, organism-based, Canis lupus familiaris; settings: in vivo, read-out: Vdss
[3] = Terminal half life in Beagle dog at 2 mg/kg, po or 1.1 mg/kg, iv by LC/MS/MS analysis; format: ADME, organism-based, Canis lupus familiaris; settings: in vivo, read-out: beta t1/2 (converted)
[4] = AUC in Sprague-Dawley rat at 60 mg/kg, po using crystalline sample during 7 day dose ranging study by LC/MS/MS analysis; format: ADME, organism-based; settings: in vivo
[5] = AUC in Sprague-Dawley rat at 200 mg/kg, po using crystalline sample during 7 day dose ranging study by LC/MS/MS analysis; format: ADME, organism-based; settings: in vivo
Cricetinae = assay: Displacement of [125I]2-iodomelatonin from hamster MT3 receptor at 10 uM measured after 60 mins by scintillation counting method
[6] = target: Receptor-interacting serine/threonine-protein kinase 2 (Homo sapiens, UniProt O43353); assay: Inhibition of fluorescent-labelled ligand binding to human RIP2K preincubated for 10 mins followed by fluorescent-labelled ligand addition and measured after 10 mins by fluorescence polarization assay
Chain of Receptor-interacting serine/threonine-protein kinase 2 (O43353 whole entry, the tested form may be a part): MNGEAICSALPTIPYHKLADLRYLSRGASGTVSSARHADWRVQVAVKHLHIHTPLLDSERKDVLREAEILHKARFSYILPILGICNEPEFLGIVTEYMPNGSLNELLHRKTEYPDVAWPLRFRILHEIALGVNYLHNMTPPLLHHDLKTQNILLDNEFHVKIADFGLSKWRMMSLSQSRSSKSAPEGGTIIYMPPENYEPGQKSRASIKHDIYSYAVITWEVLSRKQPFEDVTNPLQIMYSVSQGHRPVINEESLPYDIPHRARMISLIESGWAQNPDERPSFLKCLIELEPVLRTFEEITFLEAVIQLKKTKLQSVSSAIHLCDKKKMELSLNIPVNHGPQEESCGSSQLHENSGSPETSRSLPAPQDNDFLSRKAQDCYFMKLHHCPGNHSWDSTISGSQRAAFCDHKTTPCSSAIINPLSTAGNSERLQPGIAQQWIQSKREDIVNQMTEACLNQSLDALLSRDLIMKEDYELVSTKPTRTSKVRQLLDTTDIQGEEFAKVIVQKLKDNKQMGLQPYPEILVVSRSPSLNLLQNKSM

[7] = target: Nucleotide-binding oligomerization domain-containing protein 2 (Homo sapiens, UniProt Q9HC29); assay: Inhibition of human NOD2 expressed in HEK293 cells assessed as reduction in MDP-induced IL8 production measured after 22 hrs by HTRF fluorescence assay; format: cell-based
Chain of Nucleotide-binding oligomerization domain-containing protein 2 (Q9HC29 whole entry, the tested form may be a part): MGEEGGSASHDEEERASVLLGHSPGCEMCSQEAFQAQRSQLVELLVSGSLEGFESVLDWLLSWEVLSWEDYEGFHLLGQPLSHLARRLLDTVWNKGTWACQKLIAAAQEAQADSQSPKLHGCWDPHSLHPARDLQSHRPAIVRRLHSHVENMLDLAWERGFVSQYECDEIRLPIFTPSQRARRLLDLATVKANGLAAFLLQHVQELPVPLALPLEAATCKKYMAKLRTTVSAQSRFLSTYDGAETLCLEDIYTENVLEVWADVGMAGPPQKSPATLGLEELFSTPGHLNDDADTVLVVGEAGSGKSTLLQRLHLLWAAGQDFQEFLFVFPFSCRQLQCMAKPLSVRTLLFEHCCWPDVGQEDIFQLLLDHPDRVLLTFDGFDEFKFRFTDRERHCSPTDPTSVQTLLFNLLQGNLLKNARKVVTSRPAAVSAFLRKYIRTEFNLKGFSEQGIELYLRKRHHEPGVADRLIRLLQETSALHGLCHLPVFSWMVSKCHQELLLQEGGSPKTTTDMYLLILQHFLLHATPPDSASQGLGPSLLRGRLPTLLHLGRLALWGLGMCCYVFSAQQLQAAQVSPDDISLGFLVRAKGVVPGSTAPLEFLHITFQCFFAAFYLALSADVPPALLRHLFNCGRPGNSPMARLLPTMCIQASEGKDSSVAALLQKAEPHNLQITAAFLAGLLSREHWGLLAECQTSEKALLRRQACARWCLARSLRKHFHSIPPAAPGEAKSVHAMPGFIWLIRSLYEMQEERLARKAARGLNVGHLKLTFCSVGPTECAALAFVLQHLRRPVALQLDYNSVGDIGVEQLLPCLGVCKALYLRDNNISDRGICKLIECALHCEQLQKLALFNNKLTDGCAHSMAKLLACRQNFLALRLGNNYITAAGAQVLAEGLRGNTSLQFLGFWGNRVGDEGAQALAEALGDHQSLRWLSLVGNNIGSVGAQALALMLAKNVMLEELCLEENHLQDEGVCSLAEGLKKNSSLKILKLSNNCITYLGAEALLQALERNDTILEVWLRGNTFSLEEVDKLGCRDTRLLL

[8] = target: T1, Interleukin-1 receptor type 1 (Homo sapiens, UniProt P14778); assay: Inhibition of IL1R in human monocytes assessed as reduction in IL1beta-induced TNFalpha production; format: cell-based
T1 sequence (P14778 whole entry): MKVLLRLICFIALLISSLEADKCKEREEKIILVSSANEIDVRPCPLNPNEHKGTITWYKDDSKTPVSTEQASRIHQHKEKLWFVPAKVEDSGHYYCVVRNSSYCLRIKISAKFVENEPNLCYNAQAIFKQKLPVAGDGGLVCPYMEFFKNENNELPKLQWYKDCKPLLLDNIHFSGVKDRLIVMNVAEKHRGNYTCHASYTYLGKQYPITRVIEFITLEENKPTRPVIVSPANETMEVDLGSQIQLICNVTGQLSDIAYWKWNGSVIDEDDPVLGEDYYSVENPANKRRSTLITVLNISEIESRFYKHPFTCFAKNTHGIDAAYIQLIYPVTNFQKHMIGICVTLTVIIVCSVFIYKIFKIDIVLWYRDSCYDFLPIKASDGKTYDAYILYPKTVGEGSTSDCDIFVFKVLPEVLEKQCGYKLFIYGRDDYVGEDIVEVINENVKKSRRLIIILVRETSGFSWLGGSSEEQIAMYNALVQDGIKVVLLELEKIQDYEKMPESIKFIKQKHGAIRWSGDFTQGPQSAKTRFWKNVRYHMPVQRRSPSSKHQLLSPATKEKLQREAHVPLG

[9] = Unbound fraction in minipig blood; format: ADME, tissue-based, Sus scrofa; settings: pig
[10] = Clearance in dog hepatocytes; format: ADME, cell-based, Canis lupus familiaris, Hepatocyte
Intestinal mucosa [11] = assay: Antiinflammatory activity in crohn's disease patient derived inflamed intestinal mucosa assessed as reduction in IL6 production measured after overnight incubation by immunoassay; format: functional, tissue-based; settings: Homo sapiens
Intestinal mucosa [12] = assay: Antiinflammatory activity in ulcerative colitis patient derived inflamed intestinal mucosa assessed as reduction in IL1beta production measured after overnight incubation by immunoassay; format: functional, tissue-based; settings: Homo sapiens
Intestinal mucosa [13] = assay: Antiinflammatory activity in ulcerative colitis patient derived inflamed intestinal mucosa assessed as reduction in IL6 production measured after overnight incubation by immunoassay; format: functional, tissue-based; settings: Homo sapiens
[14] = Prodrug conversion in Sprague-Dawley rat hepatic portal vein assessed as 2-((4-(Benzo[d]thiazol-5-ylamino)-6-(tert-butylsulfonyl)quinazolin-7-yl)oxy)ethanol formation; format: ADME; settings: in vivo
[15] = Cmax in Sprague-Dawley rat assessed as 2-((4-(Benzo[d]thiazol-5-ylamino)-6-(tert-butylsulfonyl)quinazolin-7-yl)oxy)ethanol level at 2 mg/kg, po by LC/MS/MS analysis; format: ADME, organism-based; design: dose 2 mg/kg, route oral; settings: in vivo
[16] = Terminal half life in Sprague-Dawley rat assessed as 2-((4-(Benzo[d]thiazol-5-ylamino)-6-(tert-butylsulfonyl)quinazolin-7-yl)oxy)ethanol level at 2 mg/kg, po or 1.1 mg/kg, iv by LC/MS/MS analysis; format: ADME, organism-based; settings: in vivo
[17] = Oral bioavailability in Sprague-Dawley rat assessed as 2-((4-(Benzo[d]thiazol-5-ylamino)-6-(tert-butylsulfonyl)quinazolin-7-yl)oxy)ethanol level at 2 mg/kg by LC/MS/MS analysis; format: ADME, organism-based; settings: in vivo
[18] = Oral bioavailability in Beagle dog assessed as 2-((4-(Benzo[d]thiazol-5-ylamino)-6-(tert-butylsulfonyl)quinazolin-7-yl)oxy)ethanol level at 2 mg/kg by LC/MS/MS analysis; format: ADME, organism-based, Canis lupus familiaris; settings: in vivo
[19] = Volume of distribution at steady state in Gottingen minipig assessed as 2-((4-(Benzo[d]thiazol-5-ylamino)-6-(tert-butylsulfonyl)quinazolin-7-yl)oxy)ethanol level at 2 mg/kg, po or 1 mg/kg, iv by LC/MS/MS analysis; format: ADME, organism-based, Sus scrofa; settings: pig, in vivo
[20] = Prodrug conversion in Sprague-Dawley rat gut assessed as 2-((4-(Benzo[d]thiazol-5-ylamino)-6-(tert-butylsulfonyl)quinazolin-7-yl)oxy)ethanol formation at 2 mg/kg, po or 0.5 mg/kg, iv measured at 15 to 120 mins post dose; format: ADME, organism-based; settings: in vivo
[21] = Solubility of the compound in FeSSIF; format: physicochemical; settings: simulated gi fluid
[22] = Prodrug conversion in Han Wistar rat eye assessed as 2-((4-(Benzo[d]thiazol-5-ylamino)-6-(tert-butylsulfonyl)quinazolin-7-yl)oxy)ethanol formation at 2 mg/kg, iv administered as infusion for 4 hrs; format: ADME, organism-based; settings: in vivo
[23] = Drug uptake in Han Wistar rat eye at 2 mg/kg, iv administered as infusion for 4 hrs; format: ADME, organism-based; settings: in vivo
[24] = Prodrug conversion in rat hepatocytes assessed as 2-((4-(Benzo[d]thiazol-5-ylamino)-6-(tert-butylsulfonyl)quinazolin-7-yl)oxy)ethanol formation at 20 uM measured after 4 hrs; format: ADME, cell-based, Hepatocyte
[25] = Prodrug conversion in minipig hepatocytes assessed as oxidation at 20 uM measured after 4 hrs; format: ADME, cell-based, Sus scrofa, Hepatocyte; settings: pig
[26] = Prodrug conversion in human hepatocytes assessed as 2-(4-(benzo[d]thiazol-5-ylamino)-6-(tert-butylsulfonyl)-1,2,3,4-tetrahydroquinazolin-7-yloxy)ethanol formation at 20 uM measured after 4 hrs; format: ADME, cell-based, Hepatocyte
[27] = Prodrug conversion in human hepatocytes assessed as (2S,3S,4S,5R,6R)-6-(2-(4-(benzo[d]thiazol-5-ylamino)-6-(tert-butylsulfonyl)quinazolin-7-yloxy)ethoxy)-3,4,5-trihydroxytetrahydro-2H-pyran-2-carboxylic acid formation at 20 uM measured after 4 hrs; format: ADME, cell-based, Hepatocyte
[28] = Prodrug conversion in Sprague-Dawley rat stomach assessed as 2-((4-(Benzo[d]thiazol-5-ylamino)-6-(tert-butylsulfonyl)quinazolin-7-yl)oxy)ethanol formation at 2 mg/kg, po or 0.5 mg/kg, iv measured at 15 to 120 mins post dose; format: ADME, organism-based; settings: in vivo

bioavailability [1]: 39%
Vd [2]: 2.6 L/kg
half-life [3]: 5.1 h
AUC at 168 h [4]: 23.4 µg·h/mL
AUC at 168 h [5]: 41.4 µg·h/mL
inhibition (Cricetinae): Active
IC50 [6]: 0.005 µM
IC50 [7]: 0.004 µM
inhibition [7]: Dose-dependent effect
IC50 [8]: > 10 µM
fraction unbound [9]: 0.068
CLH [10]: 0.65 mL/min/g
IC50 (Intestinal mucosa [11]): 0.01 µM
SMILES: CC(C)(C)S(=O)(=O)c1cc2c(Nc3ccc4scnc4c3)ncnc2cc1OCCO
Activity (Intestinal mucosa [11]): Dose-dependent effect
Activity (Intestinal mucosa [12]): Dose-dependent effect
IC50 (Intestinal mucosa [12]): 0.01 µM
Activity (Intestinal mucosa [13]): Dose-dependent effect
IC50 (Intestinal mucosa [13]): 0.01 µM

Drug metabolism [14]: Metabolite_Detected
Cmax [15]: 0.17 µg/mL
beta t1/2 [16]: 2.4 h
F [17]: 77%
F [18]: 100%
Vdss [19]: 2.1 L/kg
Drug metabolism [20]: Metabolite_Detected
solubility [21]: Soluble
Drug metabolism [22]: Metabolite_Detected
Drug uptake [23]: Not Active
Drug metabolism [24]: Metabolite_Detected
Drug metabolism [25]: Metabolite_Detected
Drug metabolism [26]: Metabolite_Detected
Drug metabolism [27]: Metabolite_Detected
Drug metabolism [28]: Metabolite_Detected
SMILES: CC(C)(C)S(=O)(=O)c1cc2c(Nc3ccc4scnc4c3)ncnc2cc1OCCOP(=O)(O)O.[CaH2]
